Results from US20230096897A1, “Lymphocyte Population and Methods for Producing Same” (AVM Biotechnology, LLC, priority 2020, published 2023).
Entries after “also recorded” stand apart in the source; their conditions may differ. Where two headings read alike, the source gives them in different places.

What was measured:
A20 B cell lymphoma [1] = assay: A20 B-cell lymphoma models, summary of studies; assay type: in vivo, mouse
Excerpt: The mouse A20 lymphoma model is a very aggressive tumor model because it employs multiple direct (expression of immunoinhibitory molecule PD-L1, IDO, and IL-10, and lack of expression of CD80 costimulatory molecule) and indirect (downregulation of APC function and induction of Treg cells) immune evasion mechanisms. In addition, in the studies described in the following, AVM0703 was not dosed until A20 tumors were very well-established, at between ˜120 to 400 mm^3 in volume.
Male BALB/c mice were inoculated subcutaneously in the flank with A20 B lymphoma cells embedded in Matrigel. Tumor volumes were monitored by caliper measurements, and when the tumors were well established at about 150 mm^3, or very well established for study “AVM_CANMOD_05” at about 400 mm^3, mice were treated with AVM0703 at HED doses of 7, 18, 22, or 25 mg/kg. Endpoint is typically defined as tumor volume of 1500 mm^3.
These mice were pooled and a contingency table analysis was performed using Fisher's exact test.

A20 B cell lymphoma [2] = assay: A20 lymphoma study AVM_CANMOD_01 (repeat dosing); assay type: in vivo, mouse
A20 B cell lymphoma [3] = assay: A20 lymphoma study AVM_CANMOD_03 (dose response); assay type: in vivo, mouse
Protocol: In a second study (“AVM_CANMOD_03”), BALB/c mice (n=5 per group) were dosed with increasing concentrations of AVM0703 HED DP (7, 18, and 26 mg/kg) on Days 9, 16, 24, and 31 after tumor inoculation. Treatment started when the tumors were approximately […], as opposed to well-established tumors of 150 mm^3 as in study AVM_CANMOD_01.
Based on evidence of pseudogrowth in tumors from AVM0703-treated mice in study AVM_CANMOD_01, tumors (n=2 per group) were sent to HistoTox Labs for slicing and immunohistochemistry. Hematoxylin and eosin stains identified several regions of necrosis and the slides were scored from 0 to 5 depending on severity.

A20 B cell lymphoma [4] = assay: A20 lymphoma study AVM_CANMOD_05, endpoint analysis subset; assay type: in vivo, mouse
female NOD mice [5] = assay: Prevention or delay of hyperglycemia in spontaneously diabetic female NOD mice; assay type: in vivo, mouse; settings: for First Onset of hyperglycemia (weeks of age): dosing from 10 weeks of age, AVM0703 single oral HED 18 or 30 mg/kg, cyclosporine 5 then 10 mg/kg twice weekly, venetoclax 25 mg/kg; for % Hyperglycemic at 22 wks of age / Median Time to diabetes (days after 10 wks of age): same groups
Protocol: Female NOD mice were ordered at 9 weeks of age.
Body weights and blood glucose levels were monitored weekly. Body condition was monitored three times per week. Oral glucose tolerance was determined in all surviving mice who reached 30 weeks of age. Remaining mice were necropsied and autoreactive lymphocytes in the pancreas and adjacent lymph nodes were determined by flow cytometry. Pancreatitis was determined by H&E staining (8 out of 15 per group). Pancreatic Beta cell surface area was measured by staining for insulin. […] Pancreas and pancreas lymph nodes were examined for autoreactive, insulin-specific CD4+ T cells by using a magnetic enrichment method together with tetramer reagents.

female NOD mice [6] = assay: Reversal of early onset and established diabetes in female NOD mice; settings: mouse, in vivo
Protocol: Female NOD mice are ordered at 9 weeks of age. Blood glucose levels are measured weekly starting at 10 weeks of age. Once a mouse has non-fasting blood glucose above 250 mg/dl, another measure is taken the following day.
For reversal of new-onset diabetes AVM0703 dosing is started one day after a mouse has had two consecutive days of elevated non-fasting blood glucose levels. Insulin pellets are implanted subcutaneously on the second day of elevated blood glucose levels. For reversal of established diabetes, two consecutive weeks of elevated blood glucose are measured, insulin pellets are implanted on day 8 after the first day of measured elevated blood glucose levels and AVM0703 is dosed on day 14 after the first day of measured elevated blood glucose levels.

A20 B cell lymphoma [7] = assay: A20 lymphoma study AVM_CANMOD_05, lymphodepletion subset
[8] = tested on: CCRF-CEM human T cell lymphoma; assay: CCRF-CEM human T cell lymphoma xenograft in NCr nude mice (AVM_CANMOD_06)
Protocol: A pilot study (“AVM_CANMOD_06”) was performed to investigate anti-tumor efficacy of AVM0703 in a human T cell lymphoma model, CCRF-CEM.
Tumor volume was assessed 3 times per week and endpoint was defined as either a tumor volume greater than 1500 mm^3 or greater than a 20% loss from initial body weight measurement.

[9] = tested on: CD3high, CD45dim, CD49b+ cells; assay: Venetoclax pre-treatment before high dose DSP in female NOD mice; assay type: in vivo, mouse; settings: 48 hours
Protocol: Female NOD mice of 10 weeks of age are treated with 12.5 mg/kg up to 50 mg/kg venetoclax 6-18 hours before oral gavage of a HED 30 mg/kg DSP dose. […] CD3high, CD45dim, CD49b+ cells are reduced from—70 cells/microliter with DSP alone to—40 cells/microliter with 12.5 mg/kg venetoclax pretreatment, to—20 cells/microliter with 25 mg/kg venetoclax pretreatment, to—15 cells/microliter with 50 mg/kg venetoclax pretreatment. Venetoclax is a Bcl-2 inhibitor.

AVM-NKT cells = settings: for Time after treatment at which AVM-NKT cells appear in peripheral blood: high doses of glucocorticoid receptor agonists
[10] = tested on: peripheral blood mononuclear cells or single cell splenocytes; assay: In vitro apoptosis of mouse blood mononuclear cells and splenocytes; assay type: cell-based; settings: up to 500 micromolar; out to 72 hours
Protocol: Mononuclear cells from peripheral blood of naïve male C57Bl/6 mice or single cell splenocytes were incubated with equivalent concentrations of AVM0703 as the peak blood concentrations of acute high dose AVM0703 achieve in vivo.
Blood and spleens were taken from naïve C57B16 mice. Mononuclear cells were isolated from blood and single cell splenocytes were isolated from the spleen. […] Therefore, the complete in vivo T and B lymphocyte ablation appears to be mediated by the AVM-NKT, and not a receptor based mechanism such as activation of a glucocorticoid receptor.

A20 cells = assay: In vitro apoptosis of A20 cells; assay type: cell-based, mouse; settings: 72 hours after high dose dexamethasone treatment in vitro
[11] = tested on: peripheral blood lymphocytes
Protocol: For initial lymphodepletion studies, naïve C57Bl/6 mice were treated with 18 mg/kg HED DP by oral gavage. Male C57BL/6 mice were obtained from Taconic Bioscience (Germantown, N.Y.) and acclimated to laboratory conditions for at least one week. […] When mice reached study timepoint, they were euthanized as follows. Mice were anesthetized with isoflurane gas. Once anesthetized, blood was drawn via cardiac puncture and place immediately in heparin-lined microtubes. 10 mL of 5 U/mL of Heparin/PBS was used for infused by slow push for retrograde perfusion via the abdominal aorta to flush out all remaining blood from the vasculature. […] The remaining blood was sent to Phoenix Labs (Mukilteo, Wash.) for Complete Blood Counts and Clinical Chemistries

[12] = pharmacodynamic (biologic) half-life; cited from earlier work
[13] = 18, 22, and 25 mg/kg pooled, n = 40
[14] = high-dose dexamethasone, naïve mice

SMILES: C[C@@H]1C[C@H]2[C@@H]3CCC4=CC(=O)C=C[C@]4(C)[C@@]3(F)[C@@H](O)C[C@]2(C)[C@@]1(O)C(=O)CO [AVM0703, dexamethasone]
- HistoTox Labs Necrosis H&E (0-5), Average (A20 B cell lymphoma [1]; 18 mg/kg, n = 15): 2.7 n = 15
- MetaMorph Area of Live Tumor, Average (A20 B cell lymphoma [1]; 18 mg/kg, n = 18): 66^ n = 18 AU × 1000
- MetaMorph Percent Necrotic, Average (A20 B cell lymphoma [1]; 18 mg/kg, n = 18): 59 n = 18%
- MetaMorph Area of Live Tumor, Average (A20 B cell lymphoma [1]; 22 mg/kg, n = 11): 87 n = 11 AU × 1000
- MetaMorph Percent Necrotic, Average (A20 B cell lymphoma [1]; 22 mg/kg, n = 11): 53 n = 11%
- MetaMorph Area of Live Tumor, Average (A20 B cell lymphoma [1]; 25 mg/kg, n = 11): 77 n = 11 AU × 1000
- MetaMorph Percent Necrotic, Average (A20 B cell lymphoma [1]; 25 mg/kg, n = 11): 63 n = 11%
- MetaMorph Area of Live Tumor, Average (A20 B cell lymphoma [1]; [13]): 75 n = 40 AU × 1000
- MetaMorph Percent Necrotic, Average (A20 B cell lymphoma [1]; [13]): 59 n = 40%
- Mice reaching the 20% body weight loss threshold (A20 B cell lymphoma [2]; after 46 days and 8 doses, n=5): One mouse
- Body weight (A20 B cell lymphoma [2]; repeat 18 mg/kg HED DP dosing, up to 7 doses): Does Not Reduce Body Weight
- Sudden deaths (A20 B cell lymphoma [3]; 7, 18, 26 mg/kg): no sudden deaths
- Spleen, thymus, colon, pancreas weights (A20 B cell lymphoma [3]; 7, 18, 26 mg/kg, at euthanization): No significant differences
- Additional median survival compared with placebo (A20 B cell lymphoma [3]; 18 and 26 mg/kg, not significant): approximately 6 days
- Tumor necrosis (A20 B cell lymphoma [3]; A20-3 DRC, 18&26 mg/kg): 18&26 mg/kg 50-80% necrotic
- Tumor resorbed (A20 B cell lymphoma [4]; 1 mouse treated at 18 mg/kg): 99.5%
- Overall complete response rate (A20 B cell lymphoma [4]; both subsets of AVM_CANMOD_05): 9%
- MetaMorph Area of Live Tumor (A20 B cell lymphoma [4]; individual mice, 18 mg/kg): 27 AU × 1000
- MetaMorph Percent Necrotic (A20 B cell lymphoma [4]; individual mice, 18 mg/kg): 69%
- Mice with significantly delayed onset (female NOD mice [5]; AVM0703 alone): 60%
- Mice in which diabetes was prevented (female NOD mice [5]; AVM0703 alone, 5 month study): 40%
- First Onset of hyperglycemia (weeks of age) (female NOD mice [5]): 20 weeks of age
- % Hyperglycemic at 22 wks of age (female NOD mice [5]): 60%
- Median Time to diabetes (days after 10 wks of age) (female NOD mice [5]): 113 days
- Body condition compared with all other groups (female NOD mice [5]; throughout the 5 month study): significantly better body condition
- Body weight loss or poor body condition (female NOD mice [6]): without the body weight loss or poor body condition
- Glucose levels (A20 B cell lymphoma [7]; 18 mg/kg HED, did not reach hypoglycemic levels): significantly reduced
- Tumor weight, tumor example (A20 B cell lymphoma [7]; 25 mg/kg, placebo example 0.54 g): 0.086 g
- Tumor volume, tumor example (A20 B cell lymphoma [7]; 25 mg/kg, placebo example 956 mm^3): 203.25 mm^3
- Glucose levels (A20 B cell lymphoma [7]; tumor model): not elevated
- Day after tumor inoculation on which one mouse was found dead ([8]; 18 mg/kg weekly): 89 days
- Tumor lysis ([8]; one treated mouse): Significant tumor lysis; also recorded: Evidence of Tumor Lysis Syndrome

SMILES: CC1(C)CCC(CN2CCN(c3ccc(C(=O)NS(=O)(=O)c4ccc(NCC5CCOCC5)c([N+](=O)[O-])c4)c(Oc4cnc5[nH]ccc5c4)c3)CC2)=C(c2ccc(Cl)cc2)C1 [Venetoclax, venetoclax, reference compound]
- CD3high, CD45dim, CD49b+ cells mobilized into the blood ([9]; 12.5 mg/kg venetoclax 6-18 hours before HED 30 mg/kg DSP): 40 cells/microliter
- CD3high, CD45dim, CD49b+ cells mobilized into the blood ([9]; 25 mg/kg venetoclax 6-18 hours before HED 30 mg/kg DSP): 20 cells/microliter
- CD3high, CD45dim, CD49b+ cells mobilized into the blood ([9]; 50 mg/kg venetoclax 6-18 hours before HED 30 mg/kg DSP): 15 cells/microliter
- First Onset of hyperglycemia (weeks of age) (female NOD mice [5]): 14 weeks of age
- % Hyperglycemic at 22 wks of age (female NOD mice [5]): 90%
- Median Time to diabetes (days after 10 wks of age) (female NOD mice [5]): 51 days

SMILES: C[C@H]1C[C@H]2[C@@H]3CCC4=CC(=O)C=C[C@]4(C)[C@@]3(F)[C@@H](O)C[C@]2(C)[C@@]1(O)C(=O)CO [betamethasone]
- Time after treatment at which AVM-NKT cells appear in peripheral blood (AVM-NKT cells): around 48 hours

SMILES: C[C@@H]1C[C@H]2[C@@H]3CCC4=CC(=O)C=C[C@]4(C)[C@@]3(F)[C@@H](O)C[C@]2(C)[C@@]1(O)C(=O)CO [dexamethasone base]
- Induction of AVM-NKT cells (dose escalation) (AVM-NKT cells; 15 mg/kg HED): particularly robust production
- Induction of AVM-NKT cells (dose escalation) (AVM-NKT cells; 6+6 mg/kg HED dosing schedule): particularly robust production
- Induction of AVM-NKT cells (dose escalation) (AVM-NKT cells; single dose between 6-12 mg/kg HED): can induce AVM-NKT cells

SMILES: C[C@@H]1C[C@H]2[C@@H]3CCC4=CC(=O)C=C[C@]4(C)[C@@]3(F)[C@@H](O)C[C@]2(C)[C@@]1(O)C(=O)COP(=O)(O)O [dexamethasone phosphate, reference compound]
- Apoptosis [10]: no in vitro apoptosis was observed
- Tumor CD3 expression (immunohistochemistry) (A20 B cell lymphoma [3]; 7, 18, 25 mg/kg DP vs placebo): visually decreased
- Tumor NKp46 staining (A20 B cell lymphoma [3]; 7, 18, 25 mg/kg DP vs placebo): visual increase
- HistoTox Labs Necrosis H&E (0-5) (A20 B cell lymphoma [3]; individual tumors, 18 mg/kg, tumor 158 mm^3 at dosing): greatest degree of necrosis

SMILES: C[C@@H]1C[C@H]2[C@@H]3CCC4=CC(=O)C=C[C@]4(C)[C@@]3(F)[C@@H](O)C[C@]2(C)[C@@]1(O)C(=O)CO [dexamethasone]
- Apoptosis of A20 cells (A20 cells): about 30%
- Platelet numbers ([11]; 18 mg/kg HED DP): spared; also recorded: does not affect
- Number of live hematopoietic stem cells ([11]; 18 mg/kg HED DP, 6 hours to 35 days): does not significantly alter
- Basophils [11, 14]: reduced only at the 6 hour time point
- Eosinophils [11, 14]: reduced only at the 24 and 48 hour time points
- HSCs and MSCs [11, 14]: spared or increased
- RBCs [11, 14]: spared
- Time after treatment at which AVM-NKT cells appear in peripheral blood (AVM-NKT cells): around 48 hours
- Time to induction of AVM-NKT cells in the spleen (AVM-NKT cells; normal mice, after dexamethasone dosing): ≤ 48 h

SMILES: C[C@]12C=CC(=O)C=C1CC[C@@H]1[C@@H]2C(=O)C[C@@]2(C)[C@H]1CC[C@]2(O)C(=O)CO [prednisone]
- Biologic half-life [12]: about 20 hours
